Measurements reported in patent US6361764B1, “Insoluble s-triazine derivatives and their use as UV filters” (Societe L'Oreal S.A., priority 1996, dated 2002).

Experiments:
[1] = solid UV absorption spectrum of a film of the screened compound dispersed in white petroleum jelly; assay type: physicochemical; settings: 5 g screened compound per 100 g petroleum jelly "Codex 236", film 10 Am thick, Shimadzu UV 2101 PC spectrophotometer
Excerpt: This 2,4,6-tris[(3′-benzotriazol-2-yl-2′-hydroxy-5′-methyl)phenylamino]-s-triazine was screened at 50 μm through a screen of stainless steel-gauze stainless steel assembly. Next, it was dispersed in white petroleum jelly sold under the trade name “Codex 236” by the company Sarega at the melting point of the petroleum jelly and in a proportion of 5 g of screened 2,4,6-tris[(3′-benzotriazol-2-yl-2′-hydroxy-5′-methyl) phenylamino]-s-triazine per 100 g of petroleum jelly. This mixture was then treated with ultrasound in order to ensure homogeneous dispersion. A film 10 Am thick was analysed.
The solid UV absorption spectrum was obtained using a Shimadzu UV 2101 PC spectrophotometer and is represented in FIG. 1.
The solid UV absorption spectrum of this 2,4,6-tris[(3′-benzotriazol-2-yl-2′-hydroxy-5′-tert-octyl)phenylamino]-s-triazine was measured according to the same procedure as in Example 1. This spectrum is represented in FIG. 2.

[2] = UV absorption in CHCl3; assay type: physicochemical

Row | melting point | UV λmax ([2]; CHCl3) | UV εmax ([2]; CHCl3, at λmax) | Structure (SMILES) | solid UV absorption spectrum: range absorbed [1]
1 | > 270 °C |  |  | Cc1cc(Nc2nc(Nc3cc(C)cc(-n4nc5ccccc5n4)c3O)nc(Nc3cc(C)cc(-n4nc5ccccc5n4)c3O)n2)c(O)c(-n2nc3ccccc3n2)c1 [Example 1, 2,4,6-tris[(3′-benzotriazol-2-yl-2′-hydroxy-5′-methyl)phenylamino]-s-triazine] | absorbs throughout the UV radiation range (280-400 nm)
2 |  | 326 nm | 68,600 | CC(C)(C)CC(C)(C)c1cc(Nc2nc(Nc3cc(C(C)(C)CC(C)(C)C)cc(-n4nc5ccccc5n4)c3O)nc(Nc3cc(C(C)(C)CC(C)(C)C)cc(-n4nc5ccccc5n4)c3O)n2)c(O)c(-n2nc3ccccc3n2)c1 [Example 2, 2,4,6-tris[(3′-benzotriazol-2-yl-2′-hydroxy-5′-tert-octyl)phenylaminol]-s-triazine] | absorbs throughout the UV radiation range (280-400 nm)
